In patent publication US20250197372A1 (priority 2020, published 2025):

Assays:
[1] = molecular target: T1, recombinant alpha-glucosidase I (human full-length glucosidase I, Glu 1) (Homo sapiens, UniProt Q13724); experiment: Alpha-glucosidase I assay (Amplex Red glucose detection, synthetic trisaccharide substrate); format: biochemical; details: Glucosidase 1; read-out: Glu 1 IC50
T1 construct: 6-His (C); made in house; host or cells: HEK-293T cells transduced with BacMam virus (virus raised in Sf9)
T1 sequence (Q13724 1-837): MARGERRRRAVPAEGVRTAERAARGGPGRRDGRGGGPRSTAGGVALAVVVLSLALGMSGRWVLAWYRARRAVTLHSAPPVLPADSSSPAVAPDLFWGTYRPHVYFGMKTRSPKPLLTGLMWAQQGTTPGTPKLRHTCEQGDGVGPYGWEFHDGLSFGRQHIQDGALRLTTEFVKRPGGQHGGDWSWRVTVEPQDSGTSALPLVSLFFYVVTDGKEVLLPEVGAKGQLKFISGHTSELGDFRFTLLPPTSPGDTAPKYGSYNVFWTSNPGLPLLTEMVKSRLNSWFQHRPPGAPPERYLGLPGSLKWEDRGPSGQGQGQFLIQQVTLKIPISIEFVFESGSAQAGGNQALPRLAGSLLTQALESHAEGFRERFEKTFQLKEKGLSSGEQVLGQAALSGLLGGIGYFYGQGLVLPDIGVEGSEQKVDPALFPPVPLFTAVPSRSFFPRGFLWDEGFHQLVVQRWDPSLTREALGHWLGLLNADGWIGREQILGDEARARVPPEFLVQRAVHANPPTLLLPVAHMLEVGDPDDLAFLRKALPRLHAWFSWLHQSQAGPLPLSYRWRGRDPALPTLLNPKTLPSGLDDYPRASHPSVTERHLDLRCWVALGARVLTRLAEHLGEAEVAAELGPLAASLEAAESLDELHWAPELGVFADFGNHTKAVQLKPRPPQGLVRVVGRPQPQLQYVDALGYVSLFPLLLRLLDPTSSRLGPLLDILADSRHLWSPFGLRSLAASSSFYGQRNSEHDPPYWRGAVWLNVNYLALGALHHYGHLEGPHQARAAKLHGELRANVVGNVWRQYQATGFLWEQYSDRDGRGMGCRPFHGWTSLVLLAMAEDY
In short: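 Human full-length glucosidase I, His-tagged, […] and Ni-purified. Enzyme preincubated with compound dilutions 60 min at 37° C, then synthetic trisaccharide substrate 90 min at 37° C; stopped with 1.5M Tris pH 8.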

[2] = molecular target: rat maltase (partially purified alpha-glucosidase from intestinal rat powder); experiment: Intestinal alpha-glucosidase assay, maltose substrate (Glucose GO Kit); format: biochemical
In short: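 Enzyme from intestinal rat powder, partially purified, is exposed to compound for 60 min at 37 °C. Disaccharide substrate (maltose or sucrose respectively) then reacts 30 min at 37 °C. Heat-stopped samples are assayed for glucose, and percent inhibition versus concentration gives IC50 via 4-PL.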

Work on `N#Cc1ccc(NCCCCCCN2C[C@H](O)[C@@H](O)[C@H](O)[C@H]2CO)c([N+](=O)[O-])c1` [Compound 1304, 3-nitro-4-({6-[(2R,3R,4R,5S)-3,4,5-trihydroxy-2-(hydroxymethyl)piperidin-1-yl]hexyl}amino)benzonitrile] yielded an IC50 [1] of 178 nM and an IC50 [2] of 17 nM.
